Read-outs that look alike come from different tables or passages of the source.
Tests used:
[1] = test system: metrazol-induced convulsions; experiment: Suppression of Metrazol-Induced Convulsions in Adult Male Mice; format: in vivo; conditions: for ED50: Mus musculus, po
[2] = test system: Anxiety in the Adult Male Rat; experiment: Suppression of Anxiety in the Adult Male Rat (rat conflict test); format: in vivo, rats; conditions: for minimal effective dose: Rattus norvegicus
Protocol: Assay to Measure the Suppression of Anxiety in the Adult Male Rat
Male rats were deprived of water for 48 hours and were deprived of food for 24 hours prior to testing. After the first 24 hours of water deprivation, they were placed in the conflict chamber for a training period; wherein, they were allowed 200 unpunished licks from a bottle containing tap water. The experiment was run the next day. At the expected time of peak activity, the animals were placed in the chamber and allowed access to tap water. […] Their first lick initiates a 3-min test session. Subsequently, every 20th lick was punished by a 0.2-s shock delivered via the stainless-steel drinking-tube.
The Wilcoxon rank-sum test (Mann-Whitney U-test) was used to test for an increase (p<0.05, 1-tailed) in the median number of shocks in drug-treated groups, compared to a concurrently run vehicle-treated group. The biological assay is considered to be valid if the effects of a known anxiolytic (positive control) are detected, within the same experiment.

[3] = test system: metrazol-induced convulsions; experiment: Suppression of Metrazol-Induced Convulsions in Adult Male Mice; format: in vivo; conditions: Mus musculus, ip
Protocol: Assay to Determine the Suppression of Metrazol-Induced Convulsions in Adult Male Mice
Male CD1 mice, were fasted at least 16 hours, were divided into equal groups and test compounds or vehicle were administered parenterally. Water was not withheld except during the period of observations. […] Metrazol was dissolved in 0.9% sodium chloride solution, and its dose volume was 10 ml/kg. Animals were housed individually for observation of clonic convulsions, tonic convulsions and death for a period of 30 min. […] The biological assay was considered to be valid if the effects of a known anticonvulsant (positive control) were detected, within the same experiment. Activity was reported as percent reduction of clonic convulsions from the vehicle group.

[4] = target: benzodiazepine site of the GABA-A receptor; experiment: Benzodiazepine Receptor Binding Assay (inhibition of 3H-flunitrazepam binding); conditions: read-out: GABAA Receptor Binding IC50
[5] = block of clonic convulsions, male CD1 mice, >30 = active dose not determined
[6] = ip, minimum effective dose, increase in shocks tolerated, >10 = active dose not determined, read-out: Rat Conflict (MED, mg/kg) ip
[7] = po, minimum effective dose, increase in shocks tolerated, >10 = active dose not determined, read-out: Rat Conflict (MED, mg/kg) po
[8] = inhibition of 3H-flunitrazepam (ca. 3 nM) binding to membranes, 25°C, over 10,000 = not active
[9] = po, rat, po, read-out: Rat Conflict (MED, mg/kg) po
[10] = ip, rat, ip, read-out: Rat Conflict (MED, mg/kg) ip

Compound	IC50 [4] [nM]	ED50 ([1]; mouse) [mg/kg]	minimal effective dose [2, 9] [mg/kg]	ED50 ([3]; mouse) [mg/kg]	further results
CN1CCCC(N2C3=C(C(=O)Nc4ccccc4F)C(=O)CCN3c3ccc(F)cc32)C1 (stereo not shown) [Compound 87]					ED50 [1, 5]: 10 mg/kg; minimal effective dose [2, 6]: > 10 mg/kg; minimal effective dose [2, 7]: > 10 mg/kg; ED50 [3, 5]: 3 mg/kg; IC50 [4, 8]: 30.7 nM
O=C1CCN2C(=C1C(=O)Nc1ccccc1F)N(CCN1CCOCC1)c1cc(F)ccc12 [Compound 88]					ED50 [1, 5]: 7 mg/kg; minimal effective dose [2, 6]: > 10 mg/kg; minimal effective dose [2, 7]: 10 mg/kg; ED50 [3, 5]: 0.1 mg/kg; IC50 [4, 8]: 3.67 nM
N#CCN1C2=C(C(=O)Nc3ccccc3F)C(=O)CCN2c2ccc(F)cc21 [Compound 89]					ED50 [1, 5]: 0.5 mg/kg; minimal effective dose [2, 7]: 1 mg/kg; ED50 [3, 5]: < 1 mg/kg; IC50 [4, 8]: 1.84 nM
COc1cccc(NC(=O)C2=C3N(CC#N)c4ccccc4N3CCC2=O)c1 [Compound 90]					ED50 [1, 5]: 0.5 mg/kg; minimal effective dose [2, 7]: 1 mg/kg; ED50 [3, 5]: < 1 mg/kg; IC50 [4, 8]: 6.04 nM
CCOCN1C2=C(C(=O)Nc3ccc(OC(=O)OC)cc3F)C(=O)CCN2c2ccc(F)cc21 [Compound 100]	4.35	3 to 30	~1	≥ 1	
COCCN1C2=C(C(=O)Nc3nccs3)C(=O)CCN2c2ccccc21 [Compound 102]	8.82	~6	10	~1	
CCOCN1C2=C(C(=O)Nc3ccc(OC)cc3)C(=O)CCN2c2ccc(F)cc21 [Compound 104]	1.04	< 3	0.1	< 1	
CCOCN1C2=C(C(=O)Nc3cccs3)C(=O)CCN2c2ccccc21 [Compound 105]	0.84	< 3	10	< 1	
COCCN1C2=C(C(=O)NC3CCCCC3)C(=O)CCN2c2ccc(F)cc21 [Compound 110]	19.1	≥ 30	10	≥ 1	
CCOCN1C2=C(C(=O)NC3CC3)C(=O)CCN2c2ccc(F)cc21 [Compound 111]	1.9	> 30	> 10	> 1	
COC(=O)OCCN1C2=C(C(=O)Nc3ccccc3F)C(=O)CCN2c2ccc(F)cc21 [Compound 114, 7-Fluoro-1,2-dihydro-5-[2-(methoxycarbonyloxy)ethyl]-3-oxo-N-(2-fluorophenyl)pyrido[1,2-a]benzimidazole-4-carboxamide]	0.3	≤ 3	3	< 1	
CCOCN1C2=C(C(=O)Nc3cc4ccccc4s3)C(=O)CCN2c2ccccc21 [Compound 116]	100	> 30	> 10	> 1	
COCCN1C2=C(C(=O)NC3CC3)C(=O)CCN2c2ccc(F)cc21 [Compound 118]	3.68	~3	10	< 1	
CCOCN1C2=C(C(=O)Nc3ccc(S(C)(=O)=O)s3)C(=O)CCN2c2ccc(F)cc21 [Compound 120]	35.1	~3	> 10	> 1	
CCOCN1C2=C(C(=O)Nc3ccsc3)C(=O)CCN2c2ccc(F)cc21 [Compound 124]	0.98	~0.2	~0.3	< 1	
CCOCCN1C2=C(C(=O)Nc3sccc3Cl)C(=O)CCN2c2ccc(F)cc21 [Compound 125]	0.89	> 30	> 10	< 1	
CCOCCN1C2=C(C(=O)Nc3cccs3)C(=O)CCN2c2ccc(F)cc21 [Compound 126]	0.73	~0.6	0.1	< 1	
CCOCN1C2=C(C(=O)Nc3c(F)cccc3F)C(=O)CCN2c2c1ccc(F)c2F [Compound 127]	585	> 30	> 10	~1	
CCOCCN1C2=C(C(=O)Nc3ccc(C)s3)C(=O)CCN2c2ccc(F)cc21 [Compound 131]	1.03	~0.6	~1	< 1	
CCOCN1C2=C(C(=O)Nc3ccc(Cl)s3)C(=O)CCN2c2ccc(F)cc21 [Compound 134]	1.81	2	> 10	< 1	
COCCN1C2=C(C(=O)Nc3cccs3)C(=O)CCN2c2ccc(F)cc21 [Compound 139]	1.79	~0.2	~1	< 1	
COCCN1C2=C(C(=O)Nc3nccs3)C(=O)CCN2c2ccc(F)cc21 [Compound 140]	3.97			< 1	Mouse Metrazol (ED50, mg/kg) po ([1]; mouse): 0.3 mg/kg; Rat Conflict (MED, mg/kg) po ([2]; rat, po): >10 mg/kg
CCOCCN1C2=C(C(=O)Nc3nccs3)C(=O)CCN2c2ccc(F)cc21 [Compound 141]	6.78	~6	> 3	< 1	
COCCN1C2=C(C(=O)Nc3ccc(C)s3)C(=O)CCN2c2ccccc21 [Compound 142]	3.17	0.7	~1	< 1	
COCCN1C2=C(C(=O)Nc3ccc(C)s3)C(=O)CCN2c2ccc(F)cc21 [Compound 143]	1.35	0.7	< 10	< 1	
COCCN1C2=C(C(=O)Nc3ccc(Cl)s3)C(=O)CCN2c2ccc(F)cc21 [Compound 145]	2.05	~30	> 10	< 1	

The next lines start with results.

IC50 [4] [nM]	Compound	ED50 ([1]; mouse) [mg/kg]	minimal effective dose [2, 9] [mg/kg]	ED50 ([3]; mouse) [mg/kg]	further results
0.95	CCOCN1C2=C(C(=O)Nc3ccc(C)s3)C(=O)CCN2c2ccccc21 [Compound 101]	< 3	3	< 1	
0.55	CCOCN1C2=C(C(=O)Nc3ccccc3F)C(=O)CCN2c2ccc(F)c(F)c21 [Compound 103]	< 3	1	< 1	
4.47	COCCN1C2=C(C(=O)Nc3ccc(OC)cc3)C(=O)CCN2c2ccc(F)cc21 [Compound 106]	0.3	1	< 1	
10.4	COCCN1C2=C(C(=O)Nc3ccccc3F)C(=O)CCN2c2c(O)cccc21 [Compound 108]	≥ 30	> 10	> 1	
84	CCOCCN1C2=C(C(=O)Nc3ccc(S(C)(=O)=O)s3)C(=O)CCN2c2ccc(F)cc21 [Compound 121]	> 30	> 10	> 1	
1.19	CCOCN1C2=C(C(=O)Nc3ccc(F)cc3F)C(=O)CCN2c2ccc(F)cc21 [Compound 123]	< 3	0.1	< 1	minimal effective dose [2, 10]: ≤ 0.1 mg/kg
1.05	CCOCN1C2=C(C(=O)Nc3cccs3)C(=O)CCN2c2ccc(F)cc21 [Compound 129]	~0.2	3	< 1	
2.27	CCOCCN1C2=C(C(=O)Nc3ccnc(F)c3)C(=O)CCN2c2ccc(F)cc21 [Compound 130]	~0.8	1	< 1	
5.55	COCCN1C2=C(C(=O)Nc3ccc(F)cc3F)C(=O)CCN2c2ccc(F)cc21 [Compound 136]	0.3	0.3	< 1	
2.4	CCOCCN1C2=C(C(=O)Nc3ccc(F)cc3F)C(=O)CCN2c2ccc(F)cc21 [Compound 137]	0.15	1	< 1	minimal effective dose [2, 10]: 1 mg/kg
1.34	COCCN1C2=C(C(=O)Nc3sccc3Cl)C(=O)CCN2c2ccc(F)cc21 [Compound 138]	30	> 10	< 1	
5.26	COCCN1C2=C(C(=O)Nc3ccc(Br)s3)C(=O)CCN2c2ccc(F)cc21 [Compound 144]	~10	> 10	< 1	
2.09	COCCN1C2=C(C(=O)Nc3ccc(Cl)s3)C(=O)CCN2c2ccccc21 [Compound 146]	> 30	> 10	< 1	
